According to patent publication US20200101014A1, “Stable Theranostic and Therapeutic Nanoemulsions Using Triphilic Semifluorinated Amphiphiles” (Wisconsin Alumni Research Foundation, priority 2017, published 2020):

What was measured:
[1] = test system: A549 non-small cell lung cancer cells; settings: read-out: Reported IC50 for the A549 cell line; cited from earlier work
Zebrafish (Danio rerio) = assay: In vivo developmental toxicity study, embryo-larval zebrafish model; design: species or system Zebrafish (Danio rerio) of the AB strain
Procedure: In Vivo Developmental Toxicity Study
Due to the novel nature of the M2F8H18 amphiphile, there is no preceding toxicity data. Though some predictions can be made from previous work in the Mecozzi lab, a thorough study of developmental effects related to M2F8H18 was performed using an embryo-larval zebrafish model. This animal model was selected because zebrafish eggs remain transparent from fertilization until the tissues become dense as a mature adult. Several developmental endpoints can be simultaneously monitored providing valuable developmental toxicity data for new chemicals. Following short-term exposure, survival, and hatching, non-lethal malformations were monitored including curved body axis and pericardia edemas. Mortality rate was also monitored.
Zebrafish (Danio rerio) of the AB strain were obtained from our collaborator, Dr. Michael Taylor at the University of Madison-Wisconsin School of Pharmacy, where the fish were cultured until sexual maturation for crossing. The fish were maintained in a light/dark cycle of 14:10 hat 28.5° C. in egg water (0.03% Instant Ocean, Blacksburg, Va., USA). Zebrafish were fed with live brine shrimps (Artemia nauplii) twice a day. Embryos were obtained from healthy adult fish with a ratio of 1:2 for female to male. Six breeding groups were placed in separate spawning aquariums, equipped with a mesh bottom to prevent the eggs from being cannibalized. Crossing was induced in the morning when the light was turned on. One hour later, eggs free of macroscopically discernable symptoms of infection and disease were collected, rinsed with egg water and transferred into Petri dishes until chemical exposure.
The embryo-larvae toxicity assay was carried out according to previous studies in the Taylor and Mecozzi laboratories. Briefly, 8 fertilized eggs of 2 hpf (hours post-fertilization) stages were placed into each well of a 24-well plate and each filled with 600 μL egg water. Six concentrations (1 mM, 333 μM, 111 μM, 37 μM, 12.3 μM, and 4.1 μM) plus two controls were plated. The plate was covered and incubated at 28.5° C. in a light/dark cycle of 14:10 throughout the 96 hpf exposure period. The observations of zebrafish development were made directly in the well using a stereomicroscope (Nikon SMZ18) every 24 hr. Endpoints including mortality, spontaneous movement, hatching success, pericardial edema, and curved body axis, were selected to monitor the effects of M2F8H18. Embryos and larvae were considered dead when no heartbeat was observed. The number of hatched embryos and a cumulative mortality tally was recorded every 24 hr from 2 hpf. The number of larvae displaying pericardial edemas or curved body axes were also recorded every 24 hr from 2 hpf. […]

[2] = cited from earlier work

In the case of `CC(=O)O[C@H]1C(=O)[C@@]2(C)[C@H]([C@H](OC(=O)c3ccccc3)[C@]3(O)C[C@H](OC(=O)[C@H](O)[C@@H](NC(=O)c4ccccc4)c4ccccc4)C(C)=C1C3(C)C)[C@]1(OC(C)=O)CO[C@@H]1C[C@@H]2O` [Paclitaxel, paclitaxel], the IC50 [1] is given as 4 nM.
With `O=C(O)C(F)(F)C(F)(F)C(F)(F)C(F)(F)C(F)(F)C(F)(F)C(F)(F)F` [PFOA, perfluorooctanoic acid] the Malformations (Zebrafish (Danio rerio); 333 μM) was “curved body axis and mild pericardia edemas”, the “Mortality (fish)” value (Zebrafish (Danio rerio); 333 μM, 96 hpf) was 67% and the Mortality (Zebrafish (Danio rerio); 1 mM, 96 hpf) was “mortality in all fish”. The Malformations (Zebrafish (Danio rerio); lower PFOA concentrations (111 μM and lower)) was “No other malformations were noted”.
In the case of `FC(F)(F)C(F)(F)C(F)(F)C(F)(F)C(F)(F)C(F)(F)C(F)(F)C(F)(F)Br` [perfluorooctyl bromide], the “Solubility (in water)” value [2] is given as 5 nM.
